Experimental data taken from PubChem BioAssay (NCI).
Several values for one entry are separate records, joined by “and”; a condition that tells them apart may be missing. Equal values may be shown once.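 Dose response: 5 concentrations. Exposure: 48 h. Format: 96-well plates. Endpoint: linear interpolation; highest concentration if not reached. The concentration for 50% growth inhibition is given as GI50. TGI marks complete inhibition of growth.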

Legend:
Test in all cases: NCI-60 cell line screen, 48 h
IGROV1 ovarian = tested on: IGROV1 ovarian
SK-MEL-5 melanoma = tested on: SK-MEL-5 melanoma
HCT-116 colon = tested on: HCT-116 colon
HL-60(TB) leukemia = tested on: HL-60(TB) leukemia
CCRF-CEM leukemia = tested on: CCRF-CEM leukemia
ACHN renal = tested on: ACHN renal
DU-145 prostate = tested on: DU-145 prostate
KM12 colon = tested on: KM12 colon
RPMI-8226 leukemia = tested on: RPMI-8226 leukemia
CAKI-1 renal = tested on: CAKI-1 renal

| Structure (SMILES) | GI50 (IGROV1 ovarian) [µM] | TGI (IGROV1 ovarian) [µM] | GI50 (SK-MEL-5 melanoma) [µM] | TGI (SK-MEL-5 melanoma) | GI50 (HCT-116 colon) [µM] | TGI (HCT-116 colon) | GI50 (HL-60(TB) leukemia) [µM] | TGI (HL-60(TB) leukemia) | GI50 (CCRF-CEM leukemia) [µM] | TGI (CCRF-CEM leukemia) | GI50 (ACHN renal) [µM] | TGI (ACHN renal) | GI50 (DU-145 prostate) [µM] | TGI (DU-145 prostate) [µM] | GI50 (KM12 colon) [µM] | TGI (KM12 colon) | GI50 (RPMI-8226 leukemia) [µM] | TGI (RPMI-8226 leukemia) | GI50 (CAKI-1 renal) [µM] | TGI (CAKI-1 renal) |
| --- | --- | --- | --- | --- | --- | --- | --- | --- | --- | --- | --- | --- | --- | --- | --- | --- | --- | --- | --- | --- |
| COc1ccc(-n2cc(-c3ccc(F)cc3)[nH]c2=O)cc1OC | > 100 | > 100 | > 100 | > 100 µM | > 100 | > 100 µM | > 100 | > 100 µM | 18.2 | 34.3 µM | > 100 | > 100 µM | > 100 | > 100 | > 100 | > 100 µM | > 100 | > 100 µM | > 100 | > 100 µM |
| COc1ccc(/C=C/c2cnnc3ccccc23)cc1OC | – | > 10 | – | > 10 µM | – | > 10 µM | – | > 10 µM | – | > 10 µM | – | > 10 µM | – | > 10 | – | > 10 µM | – | > 10 µM | – | > 10 µM |
| NC(CSC(c1ccccc1)(c1ccccc1)c1ccc(Br)cc1)C(=O)O (stereo not given) | 0.293 | 40.8 | 0.0721 | 12.2 µM | 0.0469 | 5.71 µM | 0.412 | 75.3 µM | 0.0941 | – | 11.6 | > 100 µM | 0.236 | 0.548 | 0.212 | 12.7 µM | 0.093 | 22.6 µM | 0.499 | > 100 µM |
| COc1nc(C(Cl)(Cl)Cl)c(Cl)c(OC)c1Cl | > 58.5 | 89.8 | 19.6 | 34.5 µM and 83.2 µM | – | > 57.8 µM and 78.3 µM | > 41.9 | > 60.3 µM and 71.8 µM | > 45.5 | > 64.4 µM and 121 µM | – | > 54.1 µM and 73.5 µM | – | 73.2 | > 56.7 | > 91 µM and 70.1 µM | > 41.1 | > 62.9 µM and 112 µM | > 46 | > 72.9 µM and 74.6 µM |
| O=C(Nc1ccc(-n2cc(-c3ccncc3)c(-c3ccc(Cl)c(O)c3)n2)cc1)c1ccc(Cl)c(C(F)(F)F)c1 | 3.11 | > 28.4 | 0.6 | 1.64 µM | 0.918 | 2.45 µM | 1.19 | – | 1.18 | > 100 µM | 1.55 | 5.28 µM | 2.7 | > 20.3 | 0.451 | 2.88 µM | 0.426 | 2.68 µM | 1.7 | 3.8 µM |
| c1ccc(Oc2cnc3ccccc3n2)cc1 | 74.5 | > 100 | 46.3 | > 100 µM | > 100 | > 100 µM | 18.7 | > 100 µM | > 100 | > 100 µM | > 100 | > 100 µM | > 100 | > 100 | > 100 | > 100 µM | > 100 | > 100 µM | 10.2 | 50 µM |
| Cc1cnc2n(c1=O)Cc1ccccc1CO2 | 14.4 | 32.5 | 15.4 | 29.5 µM | 17.2 | 43.8 µM | 15.5 | 35.1 µM | 2.35 | 10.5 µM | 17.4 | 33.8 µM | 16.6 | 32.1 | 18 | 34.3 µM | 13.1 | 41 µM | 16.9 | 32.5 µM |
